Experimental data as given in patent US20240228504A1, “SUBSTITUTED TRICYCLIC AMIDES, ANALOGUES THEREOF, AND METHODS USING SAME” (Arbutus Biopharma Corporation, priority 2020, published 2024).

These molecules were tested on HBV rcDNA in HepDE19 cells (assay: HepDE19 assay with bDNA quantitation of HBV rcDNA). Conditions: HepDE19 assay, inhibition of rcDNA formation, bDNA quantitation; read-out: DE-19bDNA EC50.
Assay type: cell-based, hepatitis B virus

Point of comparison: `CN(C(=O)c1cc2ccccc2[nH]1)C1COCc2[nH]c(=O)c3cc(F)ccc3c21` (single isomer, unassigned) [Compound 2, N-(8-Fluoro-6-oxo-1,4,5,6-tetrahydro-2H-pyrano[3,4-c]isoquinolin-1-yl)-N-methyl-1H-indole-2-carboxamide], EC50 20 nM. Against it:
- CN(C(=O)c1cc2c(C#N)cc(F)cc2[nH]1)C1CNCc2[nH]c(=O)c3cc(F)c(F)cc3c21 (single isomer, unassigned) [Compound 399, 4-Cyano-N-(8,9-difluoro-6-oxo-1,2,3,4,5,6-hexahydrobenzo[c][1,7]naphthyridin-1-yl)-6-fluoro-N-methyl-1H-indole-2-carboxamide] — 190-fold higher, 3800 nM
- CN(C(=O)c1cc(F)c(C(F)F)c(F)c1)C1COCc2[nH]c(=O)c3cc(F)ccc3c21 (single isomer, unassigned) [Compound 179, 4-(Difluoromethyl)-3,5-difluoro-N-(8-fluoro-6-oxo-1,4,5,6-tetrahydro-2H-pyrano[3,4-c]isoquinolin-1-yl)-N-methylbenzamide] — 2.5-fold higher, 50 nM
- CN(C(=O)c1cc2c(C(F)F)cc(F)cc2[nH]1)C1COCc2[nH]c(=O)c3cc(F)ccc3c21 (single isomer, unassigned) [Compound 239, 4-(Difluoromethyl)-6-fluoro-N-(8-fluoro-6-oxo-1,4,5,6-tetrahydro-2H-pyrano[3,4-c]isoquinolin-1-yl)-N-methyl-1H-indole-2-carboxamide] — 2-fold lower, 10 nM
- CC(=O)N1Cc2[nH]c(=O)c3cc(F)c(F)cc3c2C(N(C)C(=O)c2cc3ccccc3[nH]2)C1 (single isomer, unassigned) [Compound 82, N-(3-Acetyl-8,9-difluoro-6-oxo-1,2,3,4,5,6-hexahydrobenzo[c][1,7]naphthyridin-1-yl)-N-methyl-1H-indole-2-carboxamide] — 180-fold higher, 3500 nM
- CN(C(=O)c1ccc2cccn2c1)C1CNCc2[nH]c(=O)c3cc(F)c(F)cc3c21 (single isomer, unassigned) [Compound 392, N-(8,9-difluoro-6-oxo-1,2,3,4,5,6-hexahydrobenzo[c][1,7]naphthyridin-1-yl)-N-methylindolizine-6-carboxamide] — 4.5-fold higher, 90 nM
- CN(C(=O)c1cc2ccc(Cl)cn2c1)C1CNCc2[nH]c(=O)c3cc(F)c(F)cc3c21 (single isomer, unassigned) [Compound 122, 6-Chloro-N-(8,9-difluoro-6-oxo-1,2,3,4,5,6-hexahydrobenzo[c][1,7]naphthyridin-1-yl)-N-methylindolizine-2-carboxamide] — 60-fold higher, 1200 nM
- CN(C(=O)c1cc2ccc(C(F)F)cn2c1)C1CNCc2[nH]c(=O)c3cc(F)c(F)cc3c21 (single isomer, unassigned) [Compound 388, N-(8,9-Difluoro-6-oxo-1,2,3,4,5,6-hexahydrobenzo[c][1,7]naphthyridin-1-yl)-6-(difluoromethyl)-N-methylindolizine-2-carboxamide] — 5.5-fold higher, 110 nM
- CN(C(=O)c1cc2ccccc2[nH]1)C1CNCc2[nH]c(=O)c3cc(F)c(F)cc3c21 (single isomer, unassigned) [Compound 54, N-(8,9-Difluoro-6-oxo-1,2,3,4,5,6-hexahydrobenzo[c][1,7]naphthyridin-1-yl)-N-methyl-1H-indole-2-carboxamide] — 42-fold higher, 850 nM
- CNc1nc2c(c3cc(F)c(F)cc13)C(N(C)C(=O)c1cc3cc(F)c(F)cc3[nH]1)COC2 (single isomer, unassigned) [Compound 334, N-(8,9-Difluoro-6-(methylamino)-1,4-dihydro-2H-pyrano[3,4-c]isoquinolin-1-yl)-5,6-difluoro-N-methyl-1H-indole-2-carboxamide] — 2-fold lower, 10 nM
- CN(C(=O)c1cc2c(Cl)cc(F)cc2[nH]1)C1COCc2[nH]c(=O)c3cc(F)ccc3c21 (single isomer, unassigned) [Compound 439, 4-Chloro-6-fluoro-N-(8-fluoro-6-oxo-1,4,5,6-tetrahydro-2H-pyrano[3,4-c]isoquinolin-1-yl)-N-methyl-1H-indole-2-carboxamide] — the same, 20 nM
- CN(C(=O)c1cc2cc(F)c(F)cc2[nH]1)C1COCc2nc(NCCN)c3cc(F)c(F)cc3c21 (single isomer, unassigned) [Compound 351, N-(6-((2-Aminoethyl)amino)-8,9-difluoro-1,4-dihydro-2H-pyrano[3,4-c]isoquinolin-1-yl)-5,6-difluoro-N-methyl-1H-indole-2-carboxamide] — 1.5-fold higher, 30 nM
- Cc1cccc2[nH]c(C(=O)N(C)C3CNCc4[nH]c(=O)c5cc(F)c(F)cc5c43)cc12 (single isomer, unassigned) [Compound 457, N-(8,9-difluoro-6-oxo-1,2,3,4,5,6-hexahydrobenzo[c][1,7]naphthyridin-1-yl)-N,4-dimethyl-1H-indole-2-carboxamide] — 2-fold lower, 10 nM
- CN(C(=O)c1cnc(C(F)(F)F)c(F)c1)C1COCc2[nH]c(=O)c3cc(F)ccc3c21 (single isomer, unassigned) [Compound 414, 5-Fluoro-N-(8-fluoro-6-oxo-1,4,5,6-tetrahydro-2H-pyrano[3,4-c]isoquinolin-1-yl)-N-methyl-6-(trifluoromethyl)nicotinamide] — 8.5-fold higher, 170 nM
- CC(=O)N1Cc2[nH]c(=O)c3cc(F)ccc3c2C(N(C)C(=O)c2cc3ccccc3[nH]2)C1 (single isomer, unassigned) [Compound 69, N-(3-Acetyl-8-fluoro-6-oxo-1,2,3,4,5,6-hexahydrobenzo[c][1,7]naphthyridin-1-yl)-N-methyl-1H-indole-2-carboxamide] — 1000-fold higher, 21000 nM

Same assay, conditions: Hepatitis B virus, HepDE19, HepDE19 assay, inhibition of rcDNA formation, bDNA quantitation; read-out: DE-19bDNA EC50

Point of comparison: `Cc1cc(F)cc2[nH]c(C(=O)N(C)[C@@H]3CCCc4[nH]c(=O)c5cc(F)c(F)cc5c43)cc12` [Compound 485, (R)-N-(8,9-difluoro-6-oxo-1,2,3,4,5,6-hexahydrophenanthridin-1-yl)-6-fluoro-N,4-dimethyl-1H-indole-2-carboxamide], EC50 10 nM. Against it:
- CN(C(=O)c1ccc2c(c1)c(C(F)F)nn2C)[C@@H]1COCc2[nH]c(=O)c3cc(F)c(F)cc3c21 [Compound 436, (S)-N-(8,9-Difluoro-6-oxo-1,4,5,6-tetrahydro-2H-pyrano[3,4-c]isoquinolin-1-yl)-3-(difluoromethyl)-N,1-dimethyl-1H-indazole-5-carboxamide] — 10-fold higher, 100 nM
- CN(C(=O)c1cc2c(C(F)F)cc(F)cc2[nH]1)[C@@H]1COCc2[nH]c(=O)c3cc(F)c(F)cc3c21 [Compound 230, (S)-N-(8,9-Difluoro-6-oxo-1,4,5,6-tetrahydro-2H-pyrano[3,4-c]isoquinolin-1-yl)-4-(difluoromethyl)-6-fluoro-N-methyl-1H-indole-2-carboxamide] — the same, 10 nM
- CN(C(=O)c1ccc(F)c(Cl)c1)[C@@H]1COCc2[nH]c(=O)c3cc(F)c(F)cc3c21 [Compound 112, (S)-3-Chloro-N-(8,9-difluoro-6-oxo-1,4,5,6-tetrahydro-2H-pyrano[3,4-c]isoquinolin-1-yl)-4-fluoro-N-methylbenzamide] — 4-fold higher, 40 nM
- CN(C(=O)c1cc2c(C(F)F)cc(F)cc2[nH]1)[C@@H]1CCCc2[nH]c(=O)c3cc(F)c(F)cc3c21 [Compound 483, (R)-N-(8,9-difluoro-6-oxo-1,2,3,4,5,6-hexahydrophenanthridin-1-yl)-4-(difluoromethyl)-6-fluoro-N-methyl-1H-indole-2-carboxamide] — the same, 10 nM
- CN(C(=O)[C@@](C)(O)c1ccccc1)[C@@H]1COCc2[nH]c(=O)c3cc(F)c(F)cc3c21 [Compound 93, (S)-N-((S)-8,9-Difluoro-6-oxo-1,4,5,6-tetrahydro-2H-pyrano[3,4-c]isoquinolin-1-yl)-2-hydroxy-N-methyl-2-phenylpropanamide] — 1200-fold higher, 12000 nM
- CN(C(=O)c1cc2cc(C(F)F)ccn2c1)C1CNCc2[nH]c(=O)c3cc(F)c(F)cc3c21 (single isomer, unassigned) [Compound 386, N-(8,9-Difluoro-6-oxo-1,2,3,4,5,6-hexahydrobenzo[c][1,7]naphthyridin-1-yl)-7-(difluoromethyl)-N-methylindolizine-2-carboxamide] — 190-fold higher, 1900 nM
- CN(C(=O)c1cc2cc(F)ccc2[nH]1)[C@@H]1CCCc2[nH]c(=O)c3cc(F)ccc3c21 [Compound 489, (R)-5-Fluoro-N-(8-fluoro-6-oxo-1,2,3,4,5,6-hexahydrophenanthridin-1-yl)-N-methyl-11H-indole-2-carboxamide] — the same, 10 nM
- CN(C(=O)c1cccc(Oc2ccc(F)cc2)c1)[C@@H]1COCc2[nH]c(=O)c3cc(F)c(F)cc3c21 [Compound 293, (S)-N-(8,9-Difluoro-6-oxo-1,4,5,6-tetrahydro-2H-pyrano[3,4-c]isoquinolin-1-yl)-3-(4-fluorophenoxy)-N-methylbenzamide] — 760-fold higher, 7600 nM
- CN(C(=O)C1Cc2ccccc2C1)[C@@H]1COCc2[nH]c(=O)c3cc(F)c(F)cc3c21 [Compound 195, (S)-N-(8,9-Difluoro-6-oxo-1,4,5,6-tetrahydro-2H-pyrano[3,4-c]isoquinolin-1-yl)-N-methyl-2,3-dihydro-1H-indene-2-carboxamide] — 15-fold higher, 150 nM
- CN(C(=O)c1cc2cc(Cl)ncc2[nH]1)[C@@H]1COCc2[nH]c(=O)c3cc(F)c(F)cc3c21 [Compound 204, (S)-5-Chloro-N-(8,9-difluoro-6-oxo-1,4,5,6-tetrahydro-2H-pyrano[3,4-c]isoquinolin-1-yl)-N-methyl-1H-pyrrolo[2,3-c]pyridine-2-carboxamide] — 4-fold higher, 40 nM
- CN(C(=O)c1cn2cc(Cl)ccc2n1)[C@@H]1COCc2[nH]c(=O)c3cc(F)c(F)cc3c21 [Compound 51, (S)-6-Chloro-N-(8,9-difluoro-6-oxo-1,4,5,6-tetrahydro-2H-pyrano[3,4-c]isoquinolin-1-yl)-N-methylimidazo[1,2-a]pyridine-2-carboxamide] — 130-fold higher, 1300 nM
- CN(C(=O)c1cc(Br)c[nH]1)[C@@H]1COCc2[nH]c(=O)c3cc(F)c(F)cc3c21 [Compound 198, (S)-4-Bromo-N-(8,9-difluoro-6-oxo-1,4,5,6-tetrahydro-2H-pyrano[3,4-c]isoquinolin-1-yl)-N-methyl-1H-pyrrole-2-carboxamide] — 22-fold higher, 220 nM
